Results: patent publication US20260049078A1, “DIFLUORO- AND TRIFLUORO-ACETYL HYDRAZIDES AS SELECTIVE HDAC6 INHIBITORS” (ITALFARMACO S.P.A., priority 2022, published 2026)

Assays:
[1] = test system: murine neuroblastoma N2a cell lines; experiment: In vitro α-tubulin acetylation in N2a cell line; type: cell-based; conditions: N2a cells, 16 hours; dose of the tabulated value not stated (tested at 10 μM, 1 μM and 0.1 μM)
Method: The in vitro α-tubulin acetylation was evaluated on murine neuroblastoma N2a cell lines.
Cells were maintained in Eagle's Minimum Essential Medium (ATCC, cat: 30-2003) supplemented with 10% fetal bovine serum—FBS (Gibco, cat: 10270-106).
Cells were plated in 12-well plates (Costar, cat: 3512) at the density of 6×10^4 cells/cm^2, respectively. The test compounds were prepared as 20× concentrated medium solutions in respect to the final concentrations. The cells were treated the following day. The compounds were tested at 3 doses: 10 μM, 1 μM and 0.1 μM. The final DMSO content was set as 0.5%. The cells were incubated with the compounds at 37° C. for 16 hours.
At the end of the incubation period, the cells were harvested and centrifuged for 5 minutes at 200×g and washed with 0.9% NaCl at 4° C. The resulting pellet was treated for 30 minutes at 4° C. with 100 μl Complete Lysis-M buffer containing protease inhibitors (Complete Lysis-M Roche+Complete Tablets, Mini Easypack, cat: 4719956001) and phosphatase inhibitor cocktails (PhosStop Easypack, Roche, cat: 4906837001) and then centrifuged 10 minutes at 18213×g. The protein concentration in each supernatant was determined using BCA Protein Assay Kit (Pierce, cat: 23227). The samples were diluted in PBS 1× to obtain 2 μg/ml concentration and coated in MaxiSorp 96-well plates (Nunc, cat: 442404). The plates were incubated overnight at room temperature, then washed twice with Wash Buffer (PBS 1×+0.005% tween 20) and saturated for 1 hour at room temperature with 300 μL of 1×PBS containing 10% FBS. After washing twice with Wash Buffer, the plates were incubated for 2 hours at room temperature in the presence of 100 μl/well either anti-acetylated-α-tubulin antibody (Monoclonal Anti-Tubulin, Acetylated antibody produced in mouse, Sigma-Aldrich, cat: T6793) or total anti-α-tubulin antibody (Monoclonal Anti-α-Tubulin produced in mouse, Sigma-Aldrich, cat: T6074) diluted 1:1000 in 1×PBS containing 10% FBS. Following 5 washing cycles with Wash Buffer, the secondary antibody conjugated with the enzyme HRP (Goat anti-Mouse IgG, IgM, IgA (H+L), stock concentration 0.5 mg/ml, Thermo Fisher Scientific, cat: A10668), diluted 1:1000 in 1×PBS+10% FBS was added at the volume of 100 μl/well. After two hours of incubation at room temperature the plates were washed 4 times with Wash Buffer, then 100 μl/well of TMB substrate (TMB substrate kit, Thermo Fisher Scientific, cat: 34021) was added for 15 minutes at room temperature in the dark. The reaction was stopped by adding 50 μl of 2M H2SO4. The plates were read in BioTek Synergy H1 multimode microplate reader at a wavelength of 450 nm.
The measured absorbance was corrected by subtracting the mean of blank values (samples without the primary antibody). The absorbance ratios of acetyl to total tubulin assays were calculated and normalized to the reference compound (positive control) 4 parameter logistic curve, where 100% is the fitted top of the curve and 0% is DMSO control (protein extract obtained from non-treated cells). The results are expressed as fold increase compared to the control (DMSO).

HDAC6 = experiment: Kinetic of prodrug disappearing when incubated with HDAC6 (LC-HRMS); type: biochemical; conditions: HDAC6 1 μM, 5 μM compound, 25° C.; for half-life at 5 µM: HDAC6 enzyme in assay buffer, read-out: T1/2 of prodrug disappearing
Method: The LC-HRMS analysis was carried out using a Vanquish Flex UHPLC (Thermo Fisher Scientific) and a high-resolution mass spectrometer Orbitrap QExactive Focus (Thermo Fisher Scientific), equipped with a Heated Electrospray Ionization, operated in positive mode. A Full Scan analysis was set in the m/z range 50-500 amu. A XSelect HSS T3 50×2.1 mm, 2.5 μm chromatographic column (Waters) was used. Mobile phase A consisted of 0.1% formic acid in water and mobile phase B in 0.1% formic acid in acetonitrile. The flow rate was set to 0.5 mL/min, with a gradient program from 3 to 20% B in 3 minutes.

zHDAC6-CD2 wt = zHDAC6-CD2 wt (Danio rerio (Zebrafish) (Brachydanio rerio), UniProt F8W4B7); experiment: Isolation of long-lived/tight complex (spin column chromatography with LC-HRMS); type: binding; conditions: zHDAC6-CD2 wt 1 μM, compound 5 μM, 6 hours, Bio-Spin P-6
Method: Rapid chromatography on spin columns coupled to LC-HRMS was used to attempt the isolation of long-lived/tight complexes between HDAC6 and examples 1 and 1-A. zHDAC6-CD2 wt (1 μM) was incubated with 1 (5 μM) or 1-A (also 5 μM) as described before for 6 hours. An aliquot (60 μL) was loaded on a Bio-Spin P-6 Gel Column (Bio-Rad) that had been equilibrated with assay buffer in order to separate the HDAC6-inhibitors complexes from free compounds. After centrifugation to elute the initial fraction containing most of the enzyme, ten 200 μL aliquots were applied and eluted by centrifugation to collect the low molecular weight (free) compounds. Aliquots of the fractions were subjected to LC-HRMS analysis (as described above) for identification and quantitation of 1 and its derivatives.

Sequence of zHDAC6-CD2 wt (F8W4B7 entry or part of it del 1-439/del 799-1081 limits assumed): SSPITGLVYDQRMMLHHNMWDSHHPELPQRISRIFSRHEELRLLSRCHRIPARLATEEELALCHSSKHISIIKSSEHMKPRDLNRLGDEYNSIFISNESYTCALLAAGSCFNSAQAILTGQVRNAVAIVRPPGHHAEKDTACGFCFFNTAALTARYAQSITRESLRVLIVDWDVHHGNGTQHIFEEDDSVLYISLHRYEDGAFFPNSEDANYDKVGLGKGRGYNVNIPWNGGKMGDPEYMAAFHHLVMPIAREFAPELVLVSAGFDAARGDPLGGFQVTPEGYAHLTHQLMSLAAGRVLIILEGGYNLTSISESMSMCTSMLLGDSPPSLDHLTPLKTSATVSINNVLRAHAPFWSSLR

`Nc1nc2ccc(-c3cn(Cc4ccc(-c5nnc(C(F)F)o5)cc4Cl)nn3)cc2s1` [Compound 37-A] was tested, and the “Tubulin acetylation Fold increase compared to control” value (from here on “Tubulin acetylation Fold increase”) [1] was 31 fold, the “percentage of compound concentration (prodrug remaining)” value (from here on “percentage … (prodrug remaining)”) (HDAC6; time 0 min) was 100.00% and the “percentage … (prodrug remaining)” value (HDAC6; time 30 min) was 88.1%. The “percentage … (prodrug remaining)” value (HDAC6; time 60 min) was 69.2%, the “percentage … (prodrug remaining)” value (HDAC6; time 120 min) was 38.4% and the “percentage … (prodrug remaining)” value (HDAC6; time 240 min) was 12.1%. For the same compound, the “percentage … (prodrug remaining)” value (HDAC6; time 360 min) was 3.7%, the “percentage … (prodrug remaining)” value (HDAC6; time 480 min) was 1.3% and the half-life at 5 µM (HDAC6) was 1.24 h.
`Fc1ccccc1-c1cn(Cc2ccc(-c3nnc(C(F)F)o3)cn2)nn1` [Compound 14-A] was tested, and the “Tubulin acetylation Fold increase” value [1] was 7 fold.
In the case of `Nc1nc2ccc(-c3cn(Cc4ccc(-c5nnc(C(F)F)o5)cc4F)nn3)cc2s1` [Compound 2-A], the “percentage … (prodrug remaining)” value (HDAC6; time 0 min) is reported as 100.00%, the “percentage … (prodrug remaining)” value (HDAC6; time 30 min) is reported as 73.1% and the “percentage … (prodrug remaining)” value (HDAC6; time 60 min) is reported as 53.6%. The “percentage … (prodrug remaining)” value (HDAC6; time 120 min) was 31.1%, the “percentage … (prodrug remaining)” value (HDAC6; time 240 min) was 11.1% and the “percentage … (prodrug remaining)” value (HDAC6; time 360 min) was 3.9%. The “percentage … (prodrug remaining)” value (HDAC6; time 480 min) was 1.3% and the half-life at 5 µM (HDAC6) was 1.29 h.
With `Nc1nc2ccc(-c3cn(Cc4ccc(-c5nnc(C(F)F)o5)cn4)nn3)cc2s1` [Compound 38-A] the “Tubulin acetylation Fold increase” value [1] was 22 fold.
For `FC(F)c1nnc(-c2ccc(Cn3cc(-c4ccccc4)nn3)nc2)o1` [Compound 13-A], the “Tubulin acetylation Fold increase” value [1] was 6 fold.
For `FC(F)c1nnc(-c2ccc(Cn3cc(-c4ccc(NC5=NCCN5)cc4)nn3)cc2)o1` [Compound 1-A], the “co-elution with the enzyme (fraction 1)” value (zHDAC6-CD2 wt) was “behaves as a prodrug”.
For `FC(F)c1nnc(-c2ccc(Cn3cc(-c4ccccn4)nn3)nc2)o1` [Compound 20-A], the “Tubulin acetylation Fold increase” value [1] was 15 fold.
With `Nc1nc2ccc(-c3cn(Cc4ccc(-c5nnc(C(F)F)o5)cc4)nn3)cc2s1` [Compound 32-A] the “Tubulin acetylation Fold increase” value [1] was 20 fold.
For `Nc1nc2ccc(C3CN(Cc4ccc(C(=O)NNC(=O)C(F)F)s4)N=N3)cc2s1` (stereo not drawn) [Compound 48-A], the “Tubulin acetylation Fold increase” value [1] was 45 fold.
